In patent US20230234942A1, “COMPOUNDS FOR TREATING HUNTINGTON'S DISEASE” (PTC Therapeutics, Inc., priority 2020, published 2023):

System: Endogenous Huntingtin Protein
Assay: Endogenous Huntingtin Protein Assay (ELISA-based MSD electrochemiluminescence)
Assay type: cell-based
Details: Table 2; MSD plates coated with MW1 (expanded polyglutamine) or MAB2166 capture antibody; "inactive" = result above the detection limit of the assay
Experimental: Compounds of Formula (I) were tested using the Meso Scale Discovery (MSD) Assay provided in International Application No. PCT/US2016/066042, filed on Dec. 11, 2016 and claiming priority to U.S. Provisional Application 62/265,652 filed on Dec. 10, 2015, the entire contents of which are incorporated herein by reference.
The Endogenous Huntingtin Protein assay used in Biological Example 1 was developed using the ELISA-based MSD electrochemiluminescence assay platform.
Meso Scale Discovery (MSD) 96-well or 384-well plates were coated overnight at 4° C. with MW1 (expanded polyglutamine) or MAB2166 monoclonal antibody (for capture) at a concentration of 1 μg/mL in PBS (30 μL per well). Plates were then washed three times with 300 μL wash buffer (0.05% Tween-20 in PBS) and blocked (100 μL blocking buffer; 5% BSA in PBS) for 4-5 hours at room temperature with rotational shaking and then washed three times with wash buffer.
Samples (25 μL) were transferred to the antibody-coated MSD plate and incubated overnight at 4° C. After removal of the lysates, the plate was washed three times with wash buffer, and 25 μL of #56565 (Cell signaling; rabbit monoclonal) secondary antibody (diluted to 0.25 μg/mL in 0.05% Tween-20 in blocking buffer) was added to each well and incubated with shaking for 1 Hour at room temperature. Following incubation with the secondary antibody, the wells were rinsed with wash buffer after which 25 μL of goat anti-rabbit SULFO TAG secondary detection antibody (required aspect of the MSD system) (diluted to 0.25 μg/mL in 0.05% Tween-20 in blocking buffer) was added to each well and incubated with shaking for 1 hour at room temperature. After rinsing three times with wash buffer, 150 μL of read buffer T with surfactant (MSD) were added to each empty well, and the plate was imaged on a SI 6000 imager (MSD) according to manufacturers' instructions provided for 96- or 384-well plates.

Row | Molecule | IC50 [µM]
1 | Cc1nc2cnc(-c3ccc(-c4cnc(N5C[C@@H](C)N[C@@H](C)C5)nn4)c(O)c3)cn2n1 [Cpd 167, 2-{3-[(3R,5S)-3,5-dimethylpiperazin-1-yl]-1,2,4-triazin-6-yl}-5-(2-methyl[1,2,4]triazolo[1,5-a]pyrazin-6-yl)phenol] | 0.0142
2 | Oc1cc(-c2cn[nH]c2)ccc1-c1cnc(N2CCNC3(CCC3)C2)nn1 [Cpd 50, 2-[3-(5,8-diazaspiro[3.5]nonan-8-yl)-1,2,4-triazin-6-yl]-5-(1H-pyrazol-4-yl)phenol] | 0.312
3 | Cc1nc2cnc(-c3ccc(-c4cnc(N5C[C@@H](C)N[C@@H](C)C5)nn4)c(O)c3)cn2n1 [Cpd 106, 2-{3-[(3R,5S)-3,5-dimethylpiperazin-1-yl]-1,2,4-triazin-6-yl}-5-(2-methyl[1,2,4]triazolo[1,5-a]pyrazin-6-yl)phenol] | 0.0165
4 | CC(C)C1CN(c2ncc(-c3ccc(-c4cn[nH]c4)cc3O)nn2)CCN1 (centres unmarked) [Cpd 22, 2-{3-[3-(propan-2-yl)piperazin-1-yl]-1,2,4-triazin-6-yl}-5-(1H-pyrazol-4-yl)phenol] | 0.0223
5 | Cn1cc2cc(-c3ccc(-c4cnc(N5CCN6CCCC6C5)nn4)c(O)c3)cc(F)c2n1 (centres unmarked) [Cpd 95, 5-(7-fluoro-2-methyl-2H-indazol-5-yl)-2-[3-(hexahydropyrrolo[1,2-a]pyrazin-2(1H)-yl)-1,2,4-triazin-6-yl]phenol] | 0.0083
6 | Cc1cn2nc(-c3ccc(-c4cnc(N5CCN(C)CC5)nn4)c(O)c3)cc(C)c2n1 [Cpd 104, 5-(2,8-dimethylimidazo[1,2-b]pyridazin-6-yl)-2-[3-(4-methylpiperazin-1-yl)-1,2,4-triazin-6-yl]phenol] | 0.0146
7 | 2-{3-[(3S,5R)-3-tert-butyl-5-methylpiperazin-1-yl]-1,2,4-triazin-6-yl}-5-(1,2,4-thiadiazol-3-yl)phenol [Cpd 254] | 0.556
8 | C[C@@H]1CN(c2ncc(-c3ccc(-c4cc(F)c5nn(C)cc5c4)cc3O)nn2)C[C@@H](C)N1 [Cpd 76, 2-{3-[(3R,5R)-3,5-dimethylpiperazin-1-yl]-1,2,4-triazin-6-yl}-5-(7-fluoro-2-methyl-2H-indazol-5-yl)phenol] | 0.0043
9 | CC(C)C1CN(c2ncc(-c3ccc(-c4cn[nH]c4)cc3O)nn2)CCN1C (centres unmarked) [Cpd 34, 2-{3-[4-methyl-3-(propan-2-yl)piperazin-1-yl]-1,2,4-triazin-6-yl}-5-(1H-pyrazol-4-yl)phenol] | 0.042
10 | C[C@@H]1CN(c2ncc(-c3ccc(-n4nccn4)cc3O)nn2)C[C@H](C)N1C [Cpd 52, 5-(2H-1,2,3-triazol-2-yl)-2-{3-[(3R,5S)-3,4,5-trimethylpiperazin-1-yl]-1,2,4-triazin-6-yl}phenol] | 0.336
11 | CC(C)CC1CN(c2ncc(-c3ccc(-c4cn[nH]c4)cc3O)nn2)CCN1 (centres unmarked) [Cpd 46, 2-{3-[3-(2-methylpropyl)piperazin-1-yl]-1,2,4-triazin-6-yl}-5-(1H-pyrazol-4-yl)phenol] | 0.15
12 | Cn1nc2cc(-c3ccc(-c4cnc(N5CCN[C@@H](C6CC6)C5)nn4)c(O)c3)cnc2n1 [Cpd 168, 2-{3-[(3S)-3-cyclopropylpiperazin-1-yl]-1,2,4-triazin-6-yl}-5-(2-methyl-2H-[1,2,3]triazolo[4,5-b]pyridin-6-yl)phenol] | 0.0017
13 | C[C@@H]1CN(c2ncc(-c3ccc(-c4ccc5nn(C)cc5c4)cc3O)nn2)C[C@H](C)N1 [Cpd 72, 2-{3-[(3R,5S)-3,5-dimethylpiperazin-1-yl]-1,2,4-triazin-6-yl]-5-(2-methyl-2H-indazol-5-yl)phenol] | 0.0041
14 | Oc1cc(-c2cn[nH]c2)ccc1-c1cnc(N2CCN[C@@H](C3CC3)C2)nn1 [Cpd 137, 2-{3-[(3S)-3-cyclopropylpiperazin-1-yl]-1,2,4-triazin-6-yl}-5-(1H-pyrazol-4-yl)phenol] | 0.0075
15 | Cn1cc2cc(-c3ccc(-c4cnc(N5CCN6CCC[C@H]6C5)nn4)c(O)c3)cc(F)c2n1 [Cpd 99, 5-(7-fluoro-2-methyl-2H-indazol-5-yl)-2-{3-[(8aS)-hexahydropyrrolo[1,2-a]pyrazin-2(1H)-yl]-1,2,4-triazin-6-yl]phenol] | 0.0105
16 | CC[C@@H]1CN(c2ncc(-c3ccc(-c4cn[nH]c4)cc3O)nn2)CCN1 [Cpd 48, 2-{3-[(3R)-3-ethylpiperazin-1-yl]-1,2,4-triazin-6-yl}-5-(1H-pyrazol-4-yl)phenol] | 0.167
17 | CC(C)[C@H]1CN(c2ncc(-c3ccc(-c4ncccn4)cc3O)nn2)CCN1 [Cpd 151, 2-{3-[(3S)-3-(propan-2-yl)piperazin-1-yl]-1,2,4-triazin-6-yl}-5-(pyrimidin-2-yl)phenol] | 0.204
18 | CC(C)(C)[C@H]1CN(c2ncc(-c3ccc(-c4cn[nH]c4)cc3O)nn2)CCN1 [Cpd 16, 2-{3-[(3S)-3-tert-butylpiperazin-1-yl]-1,2,4-triazin-6-yl}-5-(1H-pyrazol-4-yl)phenol] | 0.0132

Other lines, results leading:

Row | IC50 [µM] | Molecule
19 | 0.904 | CC(C)[C@H]1CN(c2ncc(-c3ccc(-c4nnc(C(F)F)s4)cc3O)nn2)CCN1 [Cpd 205, 5-[5-(difluoromethyl)-1,3,4-thiadiazol-2-yl]-2-{3-[(3S)-3-(propan-2-yl)piperazin-1-yl]-1,2,4-triazin-6-yl}phenol]
20 | 0.0141 | Cn1nnc2nc(-c3ccc(-c4cnc(N5CCN[C@@H](C6CC6)C5)nn4)c(O)c3)ccc21 [Cpd 171, 2-{3-[(3S)-3-cyclopropylpiperazin-1-yl]-1,2,4-triazin-6-yl}-5-(1-methyl-1H-[1,2,3]triazolo[4,5-b]pyridin-5-yl)phenol]
21 | 0.106 | Cn1nc2cc(-c3ccc(-c4cnc(N5CCN[C@H](C6(C)CC6)C5)nn4)c(O)c3)cnc2n1 [Cpd 242, 2-{3-[(3R)-3-(1-methylcyclopropyl)piperazin-1-yl]-1,2,4-triazin-6-yl}-5-(2-methyl-2H-[1,2,3]triazolo[4,5-b]pyridin-6-yl)phenol]
22 | 0.461 | CC(C)[C@H]1CN(c2ncc(-c3ccc(-c4ncc(Cl)s4)cc3O)nn2)CCN1 [Cpd 189, 5-(5-chloro-1,3-thiazol-2-yl)-2-{3-[(3S)-3-(propan-2-yl)piperazin-1-yl]-1,2,4-triazin-6-yl}phenol]
23 | 0.0083 | CC(C)[C@H]1CN(c2ncc(-c3ccc(-c4cnn5c4CCC5)cc3O)nn2)CCN1 [Cpd 278, 5-(5,6-dihydro-4H-pyrrolo[1,2-b]pyrazol-3-yl)-2-{3-[(3S)-3-(propan-2-yl)piperazin-1-yl]-1,2,4-triazin-6-yl}phenol]
24 | 0.319 | C=C[C@H]1CN(c2ncc(-c3ccc(-c4cn[nH]c4)cc3O)nn2)C[C@@H](C)N1 [Cpd 249, 2-{3-[(3S,5R)-3-ethenyl-5-methylpiperazin-1-yl]-1,2,4-triazin-6-yl]-5-(1H-pyrazol-4-yl)phenol]
25 | 0.621 | CC(C)[C@H]1CN(c2ncc(-c3ccc(-c4nc5cccnc5s4)cc3O)nn2)CCN1 [Cpd 191, 2-{3-[(3S)-3-(propan-2-yl)piperazin-1-yl]-1,2,4-triazin-6-yl}-5-([1,3]thiazolo[5,4-b]pyridin-2-yl)phenol]
26 | 0.049 | Cc1cnn(-c2ccc(-c3cnc(N4CCN[C@@H](C(C)C)C4)nn3)c(O)c2)n1 [Cpd 184, 5-(4-methyl-2H-1,2,3-triazol-2-yl)-2-{3-[(3S)-3-(propan-2-yl)piperazin-1-yl]-1,2,4-triazin-6-yl}phenol]
27 | 0.0124 | CC(C)[C@H]1CN(c2ncc(-c3ccc(-c4ncsn4)cc3O)nn2)CCN1 [Cpd 239, 2-{3-[(3S)-3-(propan-2-yl)piperazin-1-yl]-1,2,4-triazin-6-yl}-5-(1,2,4-thiadiazol-3-yl)phenol]
28 | 0.0219 | C[C@@H]1CN(c2ncc(-c3ccc(-c4cn[nH]c4)cc3O)nn2)C[C@H](C2CCC2)N1 [Cpd 231, 2-{3-[(3S,5R)-3-cyclobutyl-5-methylpiperazin-1-yl]-1,2,4-triazin-6-yl}-5-(1H-pyrazol-4-yl)phenol]
29 | 0.004 | Cn1nc2cnc(-c3ccc(-c4cnc(N5CCN[C@@H](C6CC6)C5)nn4)c(O)c3)cc2n1 [Cpd 172, 2-{3-[(3S)-3-cyclopropylpiperazin-1-yl]-1,2,4-triazin-6-yl}-5-(2-methyl-2H-[1,2,3]triazolo[4,5-c]pyridin-6-yl)phenol]
30 | 0.0062 | Cn1cc2cc(-c3cnc(-c4cnc(N5CCN[C@@H](C6CC6)C5)nn4)c(O)c3)cc(F)c2n1 [Cpd 181, 2-{3-[(3S)-3-cyclopropylpiperazin-1-yl]-1,2,4-triazin-6-yl}-5-(7-fluoro-2-methyl-2H-indazol-5-yl)pyridin-3-ol]
31 | 0.0108 | CC(C)(C)[C@H]1CN(c2ncc(-c3ccc(-c4ncsn4)cc3O)nn2)CCN1 [Cpd 258, 2-{3-[(3S)-3-tert-butylpiperazin-1-yl]-1,2,4-triazin-6-yl}-5-(1,2,4-thiadiazol-3-yl)phenol]
32 | 0.0188 | Cc1cnn(-c2ccc(-c3cnc(N4CCN[C@H](C5CC5)C4)nn3)c(O)c2)n1 [Cpd 183, 2-{3-[(3R)-3-cyclopropylpiperazin-1-yl]-1,2,4-triazin-6-yl}-5-(4-methyl-2H-1,2,3-triazol-2-yl)phenol]
